Reference: patent US20120020926A1, “COMPOSITION COMPRISING CAFTARIC ACID AND/OR DERIVATIVES THEREOF” (NESTEC S.A., priority 2009, published 2012)
Read-outs that look alike come from different tables or passages of the source.

Experiments:
[1] = system: liver metastasis; details: subcutaneous and oral administrations; cited from earlier work
[2] = system: chlorogenate esterase; details: Aspergillus japonicus, 1.85 mg/mL, pH 7
Method: A solution of chlorogenate esterase (0.8 mg, 24 U/g, from Kikkoman Japan) in 100 μl phosphate buffer (50 mM, pH 7.0) was added to a solution of caftaric acid (0.37 mg) in 100 μl phosphate buffer (50 mM, pH 7.0). The mixture was then incubated at 37° C. for 4 h. […] The supernatant was then analysed by HPLC. A reaction control was run in parallel under the same reaction conditions but without enzyme.
(§1) HPLC-DAD analysis of caftaric acid and hydrolysis products was performed on a Agilent 1100 system equipped with a Atlantis C18 reverse-phase column (4.6×100 mm, particle size 3 μm) and a diode array detector. The column was equilibrated with water containing 0.1% formic acid. After injection, a linear gradient to a final solvent composition of 55% water and 45% acetonitrile (containing 0.1% formic acid) was run within 12 min at a flow rate of 1 ml/min. Caftaric acid and caffeic acid were monitored by UV at 320 nm and were quantified using standard calibration curves.

[3] = system: spray-dried preparation of L. johnsonii; details: Lactobacillus johnsonii, 6 mM, pH 7
Method: 10 mg of a spray-dried preparation of L. johnsonii (3.3 E09 cfu/g) were dissolved in 100 μl of phosphate buffer (50 mM, pH 7.0). To this solution, 100 μl of a caftaric acid solution (12 mM, phosphate buffer 50 mM, pH 7.0) were added. The mixture was then incubated at 37° C. and samples were withdrawn at different reaction times. After centrifugation (3000 g, 5 min) and filtration (0.45 μm pore size syringe filters, Millipore SLHA 025 BS) the samples were analysed by HPLC.
as §1

[4] = system: Nrf2-ARE pathway (AREc32 cells); test: Antioxidant Responsive Element (ARE) luciferase assay; type: cell-based, human; details: for F/C (firefly luciferase activity): AREc reporter cell line, 24 h
[5] = system: L. johnsonii (CNCM I-1225) crude cell extract; test: Hydrolysis of caftaric acid with La1 extract (lysed cells); details: after 2 h, 37° C.
Method: (§2) Cells of L. johnsonii (CNCM I-1225) were grown (7.0 E08 cfu/ml) and centrifuged (5000 g, 10 min), the pellets were resuspended in phosphate buffer (50 mM, pH 7.0) at a concentration of 0.61 g/ml. The cells were then lysed using the glass-beads method. 600 μl of cells preparation were put into a Mini-Beadbeater for 1 min of intense shaking, cooled in ice, and put another 1 min in the Mini-Beadbeater. The crude cell extract (100 μl) was then added to 100 μl of a solution of caftaric acid (12 mM, phosphate buffer 50 mM, pH 7.0) and the mixture was incubated at 37° C. Samples were withdrawn at different reaction times, centrifuged (3000 g, 5 min), filtered through 0.45 μm pore size syringe filters (Millipore SLHA 025 BS) and analysed by HPLC.
as §1

[6] = system: L. johnsonii (CNCM I-1225) fresh cells; test: Hydrolysis of caftaric acid with L. johnsonii (La1) fresh cells; type: in vitro ADME, Lactobacillus johnsonii; details: after 4 h reaction time, 37° C.
Method: Cells of L. johnsonii (CNCM I-1225) were grown (7.0 E08 cfu/ml) and centrifuged (5000 g, 10 min), the pellets were resuspended in phosphate buffer (50 mM, pH 7.0) at a concentration of 0.61 g/ml. To 100 μl of this cells solution, 100 μl of a solution of caftaric acid (12 mM) was added and the mixture was incubated at 37° C. Samples were withdrawn at different reaction times, centrifuged (3000 g, 5 min) and filtered through 0.45 μm pore size syringe filters (Millipore SLHA 025 BS) and analysed by HPLC.
A reaction control was run in parallel under the same reaction conditions but without bacteria.
as §1

[7] = system: L. johnsonii (CNCM I-1225) crude cell extract
Method: as §2, §1

SMILES	Hydrolysis of caftaric acid into caffeic acid by chlorogenate esterase (amount by HPLC) ([2]; 0 min)	Hydrolysis of caftaric acid into caffeic acid by chlorogenate esterase (amount by HPLC) ([2]; 15 min)	Hydrolysis of caftaric acid into caffeic acid by chlorogenate esterase (amount by HPLC) ([2]; 30 min)	Hydrolysis of caftaric acid into caffeic acid by chlorogenate esterase (amount by HPLC) ([2]; 60 min)	Hydrolysis of caftaric acid into caffeic acid by chlorogenate esterase (amount by HPLC) ([2]; 120 min)	Hydrolysis of caftaric acid into caffeic acid by chlorogenate esterase (amount by HPLC) ([2]; 240 min)	hydrolysis of caftaric acid into caffeic acid by a spray-dried preparation of La1 (amount by HPLC) ([3]; 0 min)	hydrolysis of caftaric acid into caffeic acid by a spray-dried preparation of La1 (amount by HPLC) ([3]; 15 min)	hydrolysis of caftaric acid into caffeic acid by a spray-dried preparation of La1 (amount by HPLC) ([3]; 30 min)	hydrolysis of caftaric acid into caffeic acid by a spray-dried preparation of La1 (amount by HPLC) ([3]; 60 min)	hydrolysis of caftaric acid into caffeic acid by a spray-dried preparation of La1 (amount by HPLC) ([3]; 120 min)	hydrolysis of caftaric acid into caffeic acid by a spray-dried preparation of La1 (amount by HPLC) ([3]; 240 min)	also measured
O=C(O)/C=C/c1ccc(O)c(O)c1 [Caffeic acid, Caffeic Acid]	0%	18%	26%	57%	81%	98%	0	32	53	76	92	98	liver metastasis [1]: significantly reduced liver metastasis
O=C(/C=C/c1ccc(O)c(O)c1)O[C@@H](C(=O)O)[C@@H](O)C(=O)O [Caftaric acid]	99%	82%	64%	43%	19%	2%	99	68	47	24	8	2	Nrf2-luciferase reporter activity ([4]; AREc32 cells, saturation inactivation response at higher doses): positive dose-dependent response; F/C (firefly luciferase activity) ([4]; 125 μg/ml): 2796; F/C (firefly luciferase activity) ([4]; 250 μg/ml): 5821; F/C (firefly luciferase activity) ([4]; 500 μg/ml): 5182; F/C (firefly luciferase activity) ([4]; 750 μg/ml): 25792; F/C (firefly luciferase activity) ([4]; 1000 μg/ml): 4777; F/C (firefly luciferase activity) ([4]; 1200 μg/ml): 29043; transformation of caftaric acid into caffeic acid [5]: all caftaric acid acid was transformed into caffeic acid; transformation of caftaric acid into caffeic acid [6]: all caftaric acid was transformed into caffeic acid; reaction rate of hydrolysis as compared to whole cells [7]: increase of the reaction rate
